Test results reported in patent publication US20070238765A1, “Heterocyclic GABAA subtype selective receptor modulators” (Roche Palo Alto LLC, priority 2006, published 2007).
Structures can show the parent of a compound that is named as a salt.

Experiments:
GABAA α2β3γ2 = target: T1, GABAA α2β3γ2 (Homo sapiens, UniProt P18507+P28472+P47869); experiment: 35S-TBPS binding assay, HEK293 membranes with GABAA α2β3γ2 construct; details: 35S-TBPS 5 nM, GABA 1 μM, 2 hours at room temperature, read-out: α2β3γ2 (35S-TBPS binding, pIC50) (converted)
T1 construct: expressed in transfected cells; host or cells: HEK293
T1 sequence (P47869 29-451): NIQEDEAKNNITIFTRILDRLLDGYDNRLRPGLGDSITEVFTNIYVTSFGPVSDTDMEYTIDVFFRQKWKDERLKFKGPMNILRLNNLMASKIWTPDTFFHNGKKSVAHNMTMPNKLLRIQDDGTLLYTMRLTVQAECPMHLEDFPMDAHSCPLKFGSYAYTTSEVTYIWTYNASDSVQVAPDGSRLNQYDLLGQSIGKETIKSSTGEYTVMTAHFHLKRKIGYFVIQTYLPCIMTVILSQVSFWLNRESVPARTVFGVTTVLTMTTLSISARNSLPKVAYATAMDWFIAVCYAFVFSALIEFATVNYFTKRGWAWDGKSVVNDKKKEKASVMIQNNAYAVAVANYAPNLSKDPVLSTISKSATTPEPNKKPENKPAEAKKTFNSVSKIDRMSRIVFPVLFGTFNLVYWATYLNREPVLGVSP
T1 sequence (P28472 26-473): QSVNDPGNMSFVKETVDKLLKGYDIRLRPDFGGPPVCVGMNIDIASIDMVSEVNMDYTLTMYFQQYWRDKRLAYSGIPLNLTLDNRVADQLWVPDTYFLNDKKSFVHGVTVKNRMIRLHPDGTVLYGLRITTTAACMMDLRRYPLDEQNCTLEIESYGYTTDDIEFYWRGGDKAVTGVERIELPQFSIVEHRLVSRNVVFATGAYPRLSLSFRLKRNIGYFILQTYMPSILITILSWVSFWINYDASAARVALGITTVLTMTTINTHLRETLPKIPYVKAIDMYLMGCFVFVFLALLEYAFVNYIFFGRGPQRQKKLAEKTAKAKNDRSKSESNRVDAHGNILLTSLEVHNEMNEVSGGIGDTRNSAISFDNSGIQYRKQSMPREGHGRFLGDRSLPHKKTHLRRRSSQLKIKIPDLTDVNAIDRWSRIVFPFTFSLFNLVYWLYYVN
T1 sequence (P18507 40-475): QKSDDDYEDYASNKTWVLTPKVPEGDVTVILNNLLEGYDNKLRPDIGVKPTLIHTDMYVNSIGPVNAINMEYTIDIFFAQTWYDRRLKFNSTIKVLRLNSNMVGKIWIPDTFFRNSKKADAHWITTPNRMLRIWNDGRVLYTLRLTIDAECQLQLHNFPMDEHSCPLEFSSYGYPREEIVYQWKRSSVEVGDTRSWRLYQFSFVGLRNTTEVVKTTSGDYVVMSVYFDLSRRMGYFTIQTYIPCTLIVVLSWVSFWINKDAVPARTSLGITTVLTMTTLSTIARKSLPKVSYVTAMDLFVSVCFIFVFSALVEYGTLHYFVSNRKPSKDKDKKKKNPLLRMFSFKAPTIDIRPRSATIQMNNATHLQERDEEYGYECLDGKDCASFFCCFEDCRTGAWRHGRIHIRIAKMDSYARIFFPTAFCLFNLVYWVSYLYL
Method: (§1) The binding assay is based on the assay reported by K. Gee et al., Eur. J. Pharmacol. 1987, 136, 419-423.
(§2) Homogenate preparation: Membrane preparations of HEK293 cells containing either GABAA α1β2γ2 or GABAA α2β3γ2 constructs were performed according to a modified procedure previously described by Gee et al. (supra). Whole HEK 293 cells in D-PBS (calcium/magnesium free) buffer adjusted to pH 7.4 were centrifuged at 7,280×g for 20 m. After discarding the supernatant, the pellet was resuspended in the buffer and centrifuged at 1,820×g for 10 m. Afterwards, the supernatant was discarded and the pellet resuspended in ice-cold preparation buffer (50 mM Tris HCl pH 7.4, 4° C. and 150 mM KCl), homogenized for 30 sec using a Brinkmann Polytron PT3000 (setting 6) and centrifuged at 48,000×g for 30 m at 4° C. The centrifugation and homogenization procedure was repeated two more times for a total of 3 times before resuspending the membranes at a final protein concentration of 0.5 mg/mL. Aliquots (30 mL) of the final membrane preparation were then centrifuged at 48,000×g for 30 m, and the resulting pellets were stored at −80° C. until required.
(§3) 35S-TBPS binding assay. Membrane pellets containing either GABAA α1β2γ2 or GABAA α2β3γ2 constructs were thawed on ice, resuspended in 10 mL of 50 mM Tris HCl pH7.4, 4° C. and 150 mM KCl and centrifuged at 48,000×g, 30 m at 4° C. After discarding the supernatant, the pellet was resuspended in 30 mL incubation buffer (50 mM Tris HCl pH 7.4, 25° C. and 150 mM KCl) at approximately 0.5 mg/mL protein concentration. In 35S-TBPS competition studies, HEK293 membranes were incubated with 35S-TBPS (5 nM final) and GABA (1 μM) in the absence or presence of competitor at concentrations ranging from 0.01 nM to 10 μM in 125 μL incubation buffer for 2 hours at room temperature (˜22° C.). Non-specific binding was assayed with picrotoxin (100 μM final concentration). The binding reaction was terminated by vacuum filtration through GF/B filters previously soaked in 0.1% polyethylenimine followed by 3×1 mL washes with ice cold wash buffer (50 mM Tris HCl pH7.4, 4° C. and 150 mM KCl). Measurement of bound radioactivity was performed using a Packard Microplate 96 well topcount scintillation counter. Analysis of competition curves and estimation of pIC50 values of test compounds were performed using the software programs ActivityBase and/or Prism (version 3.0).

GABAA α1β2γ2 = target: T2, GABAA α1β2γ2 (Homo sapiens, UniProt P14867+P18507+P47870); experiment: 35S-TBPS binding assay, HEK293 membranes with GABAA α1β2γ2 construct; details: 35S-TBPS 5 nM, GABA 1 μM, 2 hours at room temperature, read-out: α1β2γ2 (35S-TBPS binding, pIC50) (converted)
T2 construct: expressed in transfected cells; host or cells: HEK293
T2 sequence (P14867 28-456): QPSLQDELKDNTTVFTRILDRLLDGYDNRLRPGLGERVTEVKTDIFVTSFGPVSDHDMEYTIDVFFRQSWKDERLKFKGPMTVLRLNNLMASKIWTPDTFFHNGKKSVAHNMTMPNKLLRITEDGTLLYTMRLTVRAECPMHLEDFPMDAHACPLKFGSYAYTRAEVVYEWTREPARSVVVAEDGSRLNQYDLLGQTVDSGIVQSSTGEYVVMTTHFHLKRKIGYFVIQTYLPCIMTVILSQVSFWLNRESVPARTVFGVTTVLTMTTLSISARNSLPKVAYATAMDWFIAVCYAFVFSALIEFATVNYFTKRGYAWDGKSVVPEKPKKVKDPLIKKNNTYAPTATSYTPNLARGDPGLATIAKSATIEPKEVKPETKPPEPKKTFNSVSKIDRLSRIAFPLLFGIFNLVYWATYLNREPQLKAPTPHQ
T2 sequence (P47870 25-512 limits assumed): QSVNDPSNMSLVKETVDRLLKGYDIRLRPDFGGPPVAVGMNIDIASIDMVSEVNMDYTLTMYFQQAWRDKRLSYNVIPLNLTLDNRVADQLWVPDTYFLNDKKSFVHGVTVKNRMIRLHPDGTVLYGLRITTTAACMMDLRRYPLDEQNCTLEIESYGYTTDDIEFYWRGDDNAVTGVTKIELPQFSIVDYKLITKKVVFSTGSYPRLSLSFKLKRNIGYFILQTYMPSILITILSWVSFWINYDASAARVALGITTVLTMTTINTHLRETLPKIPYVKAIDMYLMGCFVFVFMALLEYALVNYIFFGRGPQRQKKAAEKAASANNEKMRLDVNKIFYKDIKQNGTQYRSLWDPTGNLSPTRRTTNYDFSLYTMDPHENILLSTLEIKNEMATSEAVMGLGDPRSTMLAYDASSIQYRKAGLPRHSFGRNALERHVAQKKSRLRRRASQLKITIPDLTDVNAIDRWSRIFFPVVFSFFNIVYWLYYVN
T2 sequence (P18507 40-475): as the sequence (P18507 40-475) above
Method: as §1, §2, §3

SMILES | IC50 (GABAA α2β3γ2) [µM] | IC50 (GABAA α1β2γ2) [µM] | melting point [°C]
Cn1nc2c(-c3ccc(Cl)cc3Cl)cccc2c1CC1=NCCN1 [I-29, 7-(2,4-Dichloro-phenyl)-3-(4,5-di-hydro-1H-imidazol-2-yl-methyl)-2-methyl-2H-inda-zole] | > 10 | > 10 | 
Cn1nc2c(-c3ccc(Cl)cc3Cl)cccc2c1Cn1ccnn1 [I-16, 7-(2,4-Dichloro-phenyl)-2-meth-yl-3-[1,2,3]triazol-1-yl-methyl-2H-indazole] | 1.2 | 5.89 | 
CCOC(=O)Cc1ncnn1Cc1c2cccc(-c3ccc(Cl)cc3Cl)c2nn1C [I-59, {2-[7-(2,4-Dichloro-phenyl)-2-meth-yl-2H-indazol-3-yl-methyl]-2H-[1,2,4]triazol-3-yl}-aceticacid ethyl ester] |  |  | 167.9 to 168.9
CCOC(=O)Cc1nnnn1Cc1c2cccc(-c3ccc(Cl)cc3Cl)c2nn1C [I-7, {1-[7-(2,4-Dichloro-phenyl)-2-meth-yl-2H-indazol-3-yl-methyl]-1H-tetrazol-5-yl}-aceticacid ethyl ester] | 2.69 | > 10 | 
Cn1nnc(-c2c3cccc(-c4ccc(Cl)cc4Cl)c3nn2C)n1 [I-52, 7-(2,4-Dichloro-phenyl)-2-meth-yl-3-(2-methyl-2H-tetra-zol-5-yl)-2H-indazole] | 0.141 | 3.63 | 
Cn1nc2c(-c3ccc(Cl)cc3Cl)cccc2c1Cn1ccnc1 [I-40, 7-(2,4-Dichloro-phenyl)-3-imi-dazol-1-ylmethyl-2-meth-yl-2H-indazole] | 1.15 | 4.07 | 
CCOC(c1cnc[nH]1)c1c2cccc(-c3ccc(Cl)cc3Cl)c2nn1C (stereo not drawn) [I-26, 7-(2,4-Dichloro-phenyl)-3-[eth-oxy-(3H-imidazol-4-yl)-meth-yl]-2-methyl-2H-inda-zole] | 0.513 | 6.17 | 
Cn1nc2c(-c3ccc(Cl)cc3Cl)cccc2c1Cn1nccn1 [I-17, 7-(2,4-Dichloro-phenyl)-2-meth-yl-3-[1,2,3]triazol-2-yl-methyl-2H-indazole] | 0.427 | > 10 | 
CCOC(=O)Cc1ncn(Cc2c3cccc(-c4ccc(Cl)cc4Cl)c3nn2C)n1 [I-58, {1-[7-(2,4-Dichloro-phenyl)-2-meth-yl-2H-indazol-3-yl-methyl]-1H-[1,2,4]triazol-3-yl}-aceticacid ethyl ester] |  |  | 80.8 to 84
Cn1nc2c(-c3ccc(Cl)cc3Cl)cccc2c1C(=O)c1ncc[nH]1 [I-30, [7-(2,4-Dichloro-phenyl)-2-meth-yl-2H-indazol-3-yl]-(1H-imi-dazol-2-yl)-meth-anone] | 0.166 | 4.47 | 
Cn1nc2c(-c3ccc(Cl)cc3Cl)cccc2c1Cn1cccn1 [I-37, 7-(2,4-Dichloro-phenyl)-2-meth-yl-3-pyrazol-1-yl-methyl-2H-indazole] | 0.38 | 2.75 | 
CCOC(=O)c1nccn1Cc1c2cccc(-c3ccc(Cl)cc3Cl)c2nn1C [I-14, 1-[7-(2,4-Dichloro-phenyl)-2-meth-yl-2H-indazol-3-yl-methyl]-1H-imidazole-2-carboxy-lic acid ethyl ester] | 0.832 | 4.79 | 
Cn1nc2c(-c3ccc(Cl)cc3Cl)cccc2c1-c1nnn[nH]1 [I-54, 7-(2,4-Dichloro-phenyl)-2-meth-yl-3-(1H-tetrazol-5-yl)-2H-inda-zole] | 0.692 | 2.95 | 
Cn1nc2c(-c3ccc(Cl)cc3Cl)cccc2c1Cn1cncn1 [I-42, 7-(2,4-Dichloro-phenyl)-2-meth-yl-3-[1,2,4]triazol-1-yl-methyl-2H-indazole] | 0.603 | 5.01 | 
Cn1nc2c(-c3ccc(Cl)cc3Cl)cccc2c1C(O)c1ncc[nH]1 (stereo not drawn) [I-28, [7-(2,4-Dichloro-phenyl)-2-meth-yl-2H-indazol-3-yl]-(1H-imi-dazol-2-yl)-methanol] | 0.148 | 0.575 | 
Cn1nc2c(-c3ccc(Cl)cc3Cl)cccc2c1Cn1ncnn1 [I-49, 7-(2,4-Dichloro-phenyl)-2-meth-yl-3-tetrazol-2-yl-methyl-2H-indazole] | 0.372 | 2.24 | 
Cn1nc2c(-c3ccc(Cl)cc3Cl)cccc2c1C(=O)c1nccn1CCO [I-24, [7-(2,4-Dichloro-phenyl)-2-meth-yl-2H-indazol-3-yl]-[1-(2-hydroxy-ethyl)-1H-imi-dazol-2-yl]-methanone] | 0.214 | 3.72 | 
Cn1nnnc1C(O)c1c2cccc(-c3ccc(Cl)cc3Cl)c2nn1C (stereo not drawn) [I-32, [7-(2,4-Dichloro-phenyl)-2-meth-yl-2H-indazol-3-yl]-(meth-yl-1H-tetrazol-5-yl)-meth-anol] | 0.398 | 5.89 | 
Cn1nc2c(-c3ccc(Cl)cc3Cl)cccc2c1-c1cnc[nH]1 [I-36, 7-(2,4-Dichloro-phenyl)-3-(3H-imi-dazol-4-yl)-2-meth-yl-2H-indazolehydrochloride] | 0.145 | 7.24 | 
Cn1nc2c(-c3ccc(Cl)cc3Cl)cccc2c1N1C(=O)CCC1=O [I-44, 1-[7-(2,4-Dichloro-phenyl)-2-meth-yl-2H-indazol-3-yl]-pyr-rolidine-2,5-dione] | 3.63 | > 10 | 
Cn1nc2c(-c3ccc(Cl)cc3Cl)cccc2c1-c1ncc[nH]1 [I-45, 7-(2,4-Dichloro-phenyl)-3-(1H-imi-dazol-2-yl)-2-meth-yl-2H-indazole] | 0.537 | 5.62 | 
Cn1nc2c(-c3ccc(Cl)cc3Cl)cccc2c1Cc1cnc[nH]1 [I-25, 7-(2,4-Dichloro-phenyl)-3-(3H-imi-dazol-4-ylmethyl)-2-meth-yl-2H-indazole] | 1.15 | > 10 | 
CN(C)S(=O)(=O)n1ccnc1C(O)c1c2cccc(-c3ccc(Cl)cc3Cl)c2nn1C (stereo not drawn) [I-35, 2-{[7-(2,4-Dichloro-phenyl)-2-meth-yl-2H-indazol-3-yl]-hydroxy-methyl}-imidazole-1-sulfonicacid dimethyl-amide] |  | > 10 | 
COC(=O)c1cncn1Cc1c2cccc(-c3ccc(Cl)cc3Cl)c2nn1C [I-13, 3-[7-(2,4-Dichloro-phenyl)-2-meth-yl-2H-indazol-3-yl-methyl]-3H-imidazole-4-carboxy-lic acid methyl ester] | 0.912 |  | 
Cn1nc2c(-c3ccc(Cl)cc3Cl)cccc2c1Cn1cnnn1 [I-43, 7-(2,4-Dichloro-phenyl)-2-meth-yl-3-tetrazol-1-yl-methyl-2H-indazole] | 0.832 | 8.91 | 
COCn1ncnc1C(=O)c1c2cccc(-c3ccc(Cl)cc3Cl)c2nn1C [I-19, [7-(2,4-Dichloro-phenyl)-2-meth-yl-2H-indazol-3-yl]-(2-meth-oxymethyl-2H-[1,2,4]tri-azol-3-yl)-meth-anone] | 1.62 | > 10 | 
Cn1nc2c(-c3ccc(Cl)cc3Cl)cccc2c1C(O)c1cnc[nH]1 (stereo not drawn) [I-27, [7-(2,4-Dichloro-phenyl)-2-meth-yl-2H-indazol-3-yl]-(3H-imi-dazol-4-yl)-methanol] | 0.55 | 2.34 | 
Cn1nc2c(-c3ccc(Cl)cc3Cl)cccc2c1Cc1nnnn1CS(C)(=O)=O [I-9, 7-(2,4-Dichloro-phenyl)-3-(1-meth-anesulfonylmethyl-1H-tetra-zol-5-ylmethyl)-2-meth-yl-2H-indazole] | > 10 | > 10 | 
Cn1nc2c(-c3ccc(Cl)cc3Cl)cccc2c1Cc1ncc[nH]1 [I-21, 7-(2,4-Dichloro-phenyl)-3-(1H-imi-dazol-2-ylmethyl)-2-meth-yl-2H-indazole] | 0.55 | 3.55 | 
